Holding throughout (format): biochemical
The target of one assay is LCK (Homo sapiens, UniProt P06239). Description: Inhibition of a panel of kinases: LCK. The settings on record: kinase panel, Table 2. On the procedure: (§1) The degree of inhibition of a panel of kinases is determined using assays similar to the kinase assay described in Example 53.
In the next assay the target is EGFR (Homo sapiens, UniProt P00533). The assay is described as follows: Inhibition of a panel of kinases: EGFR. As to conditions: kinase panel, Table 2. How it is done:
as §1

Assay [1] addresses T1, Btk (Homo sapiens, UniProt Q06187). Description: Inhibition of a panel of kinases: Btk. The settings on record: kinase panel, Table 2. How it is done:
as §1

For assay [2], the target named is T1, Btk. The assay is described as follows: Btk in vitro inhibitory activity (Method A, B or C). Further details: purified from insect cells as a full-length construct containing a N-terminal 6×-His tag; His6 (N); made in house; host or cells: insect cells (baculovirus, Sf21). The settings on record: one of the methods of Example 53a, 53b, 53c. On the procedure: Btk kinase activity is determined using a time-resolved fluorescence resonance energy transfer (TR-FRET) methodology. Measurements are performed in a reaction volume of 50 μL using 96-well assay plates. Kinase enzyme, inhibitor, ATP (at the Km for the kinase), and 1 μM peptide substrate (Biotin-AVLESEEELYSSARQ-NH2 (SEQ ID NO: 1)) are incubated in a reaction buffer composed of 20 mM Tris, 50 mM NaCl, MgCl2 (5-25 mM depending on the kinase), MnCl2 (0-10 mM), 1 mM DTT, 0.1 mM EDTA, 0.01% bovine serum albumin, 0.005% Tween-20, and 10% DMSO at pH 7.4 for one hour. The reaction is quenched by the addition of 1.2 equivalents of EDTA (relative to divalent cation) in 25 μL of 1× Lance buffer (Perkin-Elmer). Streptavidin-APC (Perkin-Elmer) and Eu-labeled p-Tyr100 antibody (Perkin-Elmer) in 1× Lance buffer are added in a 25 μL volume to give final concentrations of 100 nM and 2.5 nM, respectively, and the mixture is allowed to incubate for one hour. The TR-FRET signal is measured on a multimode plate reader with an excitation wavelength (λEx) of 330 nm and detection wavelengths (λEm) of 615 and 665 nm. Activity is determined by the ratio of the fluorescence at 665 nm to that at 615 nm. For each compound, enzyme activity is measured at various concentrations of compound. Negative control reactions are performed in the absence of inhibitor in replicates of six, and two no-enzyme controls are used to determine baseline fluorescence levels. Inhibition constants, Ki(app), ware obtained using the program BatchKi (Kuzmic et al. (2000), Anal. Biochem. 286:45-50). IC50s are obtained according to the equation: IC50={Ki(app)/1+[ATP]/Km^ATP)}+[E]total/2;
For all kinases, [ATP]=Km^ATP, [Btk]total=0.5 nM and [Lck]total=6 nM.
Kinase activity is measured in vitro using electrophoretic mobility shift assay. The kinase reactions are assembled in a total volume of 25 μL in 384 well plates. The reactions comprise: BTK enzyme (1 nM, N-terminal His6-tagged, recombinant, full-length, human BTK purified from baculovirus Sf21 insect cell system), inhibitor, ATP (16 μM, the apparent Km for the kinase), fluorescently labeled peptide substrate (1 μM, FAM-GEEPLYWSFPAKKK-NH2 (SEQ ID NO: 2)) in a reaction buffer composed of 100 mM HEPES, pH7.5, 5 mM MgCl2 1 mM DTT, 0.1% bovine serum albumin, 0.01% Triton X-100, and 1% DMSO. The reaction is incubated for one hour and is quenched by the addition of 45 μL of termination buffer (100 mM HEPES, pH7.5, 0.01% Triton X-100, 30 mM EDTA). The terminated reactions are analyzed using 12 channel LabChip® 3000 microfluidic detection instrument (Caliper Life Sciences). The enzymatic phosphorylation of the peptide results in a change in net charge, enabling electrophoretic separation of product from substrate peptide. As substrate and product peptides are separated, two peaks of fluorescence are observed. Change in the relative fluorescence intensity of the substrate and product peaks is the parameter measured, reflecting enzyme activity. In the presence of an inhibitor, the ratio between product and substrate is altered: the signal of the product decreases, while the signal of the substrate increases.
Activity in each sample is determined as the product to sum ratio (PSR):P/(S+P), where P is the peak height of the product peptide and S is the peak height of the substrate peptide. For each compound, enzyme activity is measured at various concentrations (12 concentrations of compound spaced by 3× dilution intervals). Negative control samples (0%−inhibition in the absence of inhibitor) and positive control samples (100%−inhibition, in the presence of 20 mM EDTA) are assembled in replicates of four and are used to calculate %−inhibition values for each inhibitor at each concentration. Percent inhibition (Pinh) is determined using following equation: […]

Molecules are shown by their SMILES. pIC50: −log10 of the molar value.

T1 sequence (Q06187 whole entry): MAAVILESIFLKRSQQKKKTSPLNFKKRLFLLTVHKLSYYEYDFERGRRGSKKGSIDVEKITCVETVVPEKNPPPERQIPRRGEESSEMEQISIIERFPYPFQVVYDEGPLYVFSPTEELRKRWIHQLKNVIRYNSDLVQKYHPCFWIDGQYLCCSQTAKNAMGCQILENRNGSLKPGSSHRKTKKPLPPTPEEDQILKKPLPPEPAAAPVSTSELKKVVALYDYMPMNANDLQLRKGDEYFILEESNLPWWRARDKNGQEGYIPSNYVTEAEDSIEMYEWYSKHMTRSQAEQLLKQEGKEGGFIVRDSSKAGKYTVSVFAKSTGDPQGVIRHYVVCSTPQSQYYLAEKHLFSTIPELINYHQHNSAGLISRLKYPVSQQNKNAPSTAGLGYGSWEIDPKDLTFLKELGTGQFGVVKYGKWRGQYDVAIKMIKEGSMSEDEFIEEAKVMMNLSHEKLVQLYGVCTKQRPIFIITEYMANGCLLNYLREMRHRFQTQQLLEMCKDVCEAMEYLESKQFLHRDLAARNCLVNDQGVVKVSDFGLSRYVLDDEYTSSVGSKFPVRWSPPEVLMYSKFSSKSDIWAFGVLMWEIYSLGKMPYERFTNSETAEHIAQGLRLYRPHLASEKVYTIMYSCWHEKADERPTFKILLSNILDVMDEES
Chain of LCK (P06239 whole entry, species assumed): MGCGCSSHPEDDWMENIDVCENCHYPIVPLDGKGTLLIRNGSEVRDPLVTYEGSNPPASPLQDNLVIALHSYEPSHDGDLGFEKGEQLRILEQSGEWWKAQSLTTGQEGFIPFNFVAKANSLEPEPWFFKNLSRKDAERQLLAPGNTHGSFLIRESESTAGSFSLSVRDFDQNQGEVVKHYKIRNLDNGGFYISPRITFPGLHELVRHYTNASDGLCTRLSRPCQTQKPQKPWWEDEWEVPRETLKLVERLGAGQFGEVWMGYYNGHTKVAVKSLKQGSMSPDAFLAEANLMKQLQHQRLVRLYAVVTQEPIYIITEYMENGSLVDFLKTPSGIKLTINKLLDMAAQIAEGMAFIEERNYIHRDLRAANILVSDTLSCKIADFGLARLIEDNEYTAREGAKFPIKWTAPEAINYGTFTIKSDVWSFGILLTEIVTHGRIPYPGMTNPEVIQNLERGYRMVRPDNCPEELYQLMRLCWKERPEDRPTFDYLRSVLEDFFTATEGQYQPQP
Chain of EGFR (P00533 25-1210, species assumed): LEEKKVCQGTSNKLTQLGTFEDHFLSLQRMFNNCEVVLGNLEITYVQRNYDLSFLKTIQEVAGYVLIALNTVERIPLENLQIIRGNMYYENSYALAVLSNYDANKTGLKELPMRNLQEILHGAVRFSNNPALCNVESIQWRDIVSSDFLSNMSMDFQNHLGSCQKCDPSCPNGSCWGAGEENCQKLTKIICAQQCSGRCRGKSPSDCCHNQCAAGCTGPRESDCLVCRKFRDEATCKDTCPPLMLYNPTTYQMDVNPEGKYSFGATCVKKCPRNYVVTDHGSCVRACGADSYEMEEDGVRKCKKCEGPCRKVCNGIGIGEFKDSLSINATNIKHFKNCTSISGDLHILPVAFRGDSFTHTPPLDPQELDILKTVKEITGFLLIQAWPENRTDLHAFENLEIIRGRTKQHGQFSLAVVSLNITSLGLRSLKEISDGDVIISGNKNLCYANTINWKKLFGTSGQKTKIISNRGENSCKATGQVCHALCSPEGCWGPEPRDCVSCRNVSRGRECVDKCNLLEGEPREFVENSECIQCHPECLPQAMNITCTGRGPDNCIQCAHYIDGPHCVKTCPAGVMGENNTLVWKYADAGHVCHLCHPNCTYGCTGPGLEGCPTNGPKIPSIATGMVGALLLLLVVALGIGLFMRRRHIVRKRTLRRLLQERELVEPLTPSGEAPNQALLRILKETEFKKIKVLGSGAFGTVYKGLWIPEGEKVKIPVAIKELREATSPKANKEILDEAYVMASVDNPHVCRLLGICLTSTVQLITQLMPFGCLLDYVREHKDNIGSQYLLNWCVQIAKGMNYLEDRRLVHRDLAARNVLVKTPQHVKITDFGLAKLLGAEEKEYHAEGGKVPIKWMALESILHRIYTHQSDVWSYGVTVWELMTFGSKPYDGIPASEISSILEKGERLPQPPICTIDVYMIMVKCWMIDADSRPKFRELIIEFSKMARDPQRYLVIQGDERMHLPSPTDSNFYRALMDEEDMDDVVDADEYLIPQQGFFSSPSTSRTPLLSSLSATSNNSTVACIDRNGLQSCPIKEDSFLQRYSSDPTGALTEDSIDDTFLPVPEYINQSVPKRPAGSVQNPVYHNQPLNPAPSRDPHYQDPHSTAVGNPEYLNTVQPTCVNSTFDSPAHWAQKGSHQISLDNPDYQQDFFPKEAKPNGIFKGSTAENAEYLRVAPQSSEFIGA

For orientation: pIC50 means the IC50 on a negative log10 scale, so that one unit is a factor of ten. The low end stands for a large IC50, the high end for a small IC50. For `CC#CC(=O)N1CCC[C@@H](n2nc(-c3ccc(C(=O)Nc4cc(C)ccn4)cc3)c3c(N)ncnc32)C1` [Compound ID 11, (R)-4-(4-amino-1-(1-but-2-ynoylpiperidin-3-yl)-1H-pyrazolo[3,4-d]pyrimidin-3-yl)-N-(4-methylpyridin-2-yl)benzamide], the pIC50 is 7.00 to 8.00 at LCK, 7.00 to 8.00 on EGFR, at least 8.00 against Btk [1] and at least 8.00 against Btk [2].
With `CC#CC(=O)N1CCC[C@@H](n2nc(-c3ccc(C(=O)Nc4cc(C#N)ccn4)cc3)c3c(N)ncnc32)C1` [Compound ID 14, (R)-4-(4-amino-1-(1-but-2-ynoylpiperidin-3-yl)-1H-pyrazolo[3,4-d]pyrimidin-3-yl)-N-(4-cyanopyridin-2-yl)benzamide], the pIC50 at LCK is 7.00 to 8.00; on EGFR it was 6.00 to 7.00; against Btk [1], at least 8.00; at Btk [2] it was at least 8.00.
In the case of `C=CC(=O)N1CCC[C@@H](n2nc(-c3ccc(C(=O)Nc4ccccn4)cc3)c3c(N)ncnc32)C1` [Compound ID 25, (R)-4-(1-(1-acryloylpiperidin-3-yl)-4-amino-1H-pyrazolo[3,4-d]pyrimidin-3-yl)-N-(pyridin-2-yl)benzamide], on Btk [2], the pIC50 is at least 8.00.
Turning to `C/C=C/C(=O)N1CC[C@@H](n2nc(-c3ccc(C(=O)Nc4cc(C)ccn4)cc3)c3c(N)ncnc32)C1` [Compound ID 32, (R,E)-4-(4-amino-1-(1-but-2-enoylpyrrolidin-3-yl)-1H-pyrazolo[3,4-d]pyrimidin-3-yl)-N-(4-methylpyridin-2-yl)benzamide], at Btk [2], the pIC50 is at least 8.00.
As to `CC#CC(=O)N1CCC[C@@H](n2nc(-c3ccc(C(=O)Nc4ccccn4)cc3)c3c(N)ncnc32)C1` [Compound ID 10, (R)-4-(4-amino-1-(1-but-2-ynoylpiperidin-3-yl)-1H-pyrazolo[3,4-d]pyrimidin-3-yl)-N-(pyridin-2-yl)benzamide], the pIC50 at LCK is 6.00 to 7.00; on EGFR, at least 8.00; on Btk [1], at least 8.00; on Btk [2] it was at least 8.00.
Turning to `CC#CC(=O)N1CCC[C@@H](n2nc(-c3ccc(C(=O)Nc4cc(C(F)(F)F)ccn4)cc3)c3c(N)ncnc32)C1` [Compound ID 12, (R)-4-(4-amino-1-(1-but-2-ynoylpiperidin-3-yl)-1H-pyrazolo[3,4-d]pyrimidin-3-yl)-N-(4-(trifluoromethyl)pyridin-2-yl)benzamide], the pIC50 against LCK was 7.00 to 8.00; against EGFR it was 6.00 to 7.00; against Btk [1], at least 8.00; at Btk [2] it was at least 8.00.
For the compound `COCC#CC(=O)N1CC[C@@H](n2nc(-c3ccc(C(=O)Nc4cc(C(F)(F)F)ccn4)cc3)c3c(N)ncnc32)C1` [Compound ID 50, (R)-4-(4-amino-1-(1-(4-methoxybut-2-ynoyl)pyrrolidin-3-yl)-1H-pyrazolo[3,4-d]pyrimidin-3-yl)-N-(4-(trifluoromethyl)pyridin-2-yl)benzamide], the negative-log IC50 (pIC50) on Btk [2] is at least 8.00.
In the case of `CC#CC(=O)N1CCC[C@@H](n2nc(-c3ccc(C(=O)Nc4cc(CCC)ccn4)cc3)c3c(N)ncnc32)C1` [Compound ID 13, (R)-4-(4-amino-1-(1-but-2-ynoylpiperidin-3-yl)-1H-pyrazolo[3,4-d]pyrimidin-3-yl)-N-(4-propylpyridin-2-yl)benzamide], the pIC50 is at least 8.00 against LCK, 6.00 to 7.00 against EGFR, at least 8.00 on Btk [1] and at least 8.00 at Btk [2].
`Nc1ncnc2c1c(-c1ccc(C(=O)Nc3ccccn3)cc1)nn2[C@@H]1CCN(C(=O)C#CCO)C1` [Compound ID 19, (R)-4-(4-amino-1-(1-(4-hydroxybut-2-ynoyl)pyrrolidin-3-yl)-1H-pyrazolo[3,4-d]pyrimidin-3-yl)-N-(pyridin-2-yl)benzamide]: the results for the pIC50 on LCK, on EGFR and on Btk [1] were 6.00 to 7.00, 7.00 to 8.00 and at least 8.00, respectively.
On to `CC#CC(=O)N1CC[C@@H](n2nc(-c3ccc(C(=O)Nc4nccs4)cc3)c3c(N)ncnc32)C1` [Compound ID 15, (R)-4-(4-amino-1-(1-but-2-ynoylpyrrolidin-3-yl)-1H-pyrazolo[3,4-d]pyrimidin-3-yl)-N-(thiazol-2-yl)benzamide], for which the pIC50 on LCK was 6.00 to 7.00; against EGFR it was at least 8.00; against Btk [1] it was at least 8.00; against Btk [2] it was at least 8.00.
Compound `CC(C)=CC(=O)N1CC[C@@H](n2nc(-c3ccc(C(=O)Nc4cc(C)ccn4)cc3)c3c(N)ncnc32)C1` [Compound ID 33, (R)-4-(4-amino-1-(1-(3-methylbut-2-enoyl)pyrrolidin-3-yl)-1H-pyrazolo[3,4-d]pyrimidin-3-yl)-N-(4-methylpyridin-2-yl)benzamide] had a pIC50 at Btk [2] below 8.00.
On to `C=CC(=O)N1CCC[C@@H](n2nc(-c3ccc(C(=O)Nc4cc(C#N)ccn4)cc3)c3c(N)ncnc32)C1` [Compound ID 29, (R)-4-(1-(1-acryloylpiperidin-3-yl)-4-amino-1H-pyrazolo[3,4-d]pyrimidin-3-yl)-N-(4-cyanopyridin-2-yl)benzamide], for which the pIC50 against Btk [2] is at least 8.00.
`Nc1ncnc2c1c(-c1ccc(C(=O)Nc3cc(C(F)(F)F)ccn3)cc1)nn2[C@@H]1CCN(C(=O)C#CCO)C1` [Compound ID 49, (R)-4-(4-amino-1-(1-(4-hydroxybut-2-ynoyl)pyrrolidin-3-yl)-1H-pyrazolo[3,4-d]pyrimidin-3-yl)-N-(4-(trifluoromethyl)pyridin-2-yl)benzamide] gave a pIC50 against Btk [2] of at least 8.00.
Consider `C=CC(=O)N1CCC[C@@H](n2nc(-c3ccc(C(=O)Nc4cc(C(C)C)ccn4)cc3)c3c(N)ncnc32)C1` [Compound ID 28, (R)-4-(1-(1-acryloylpiperidin-3-yl)-4-amino-1H-pyrazolo[3,4-d]pyrimidin-3-yl)-N-(4-isopropylpyridin-2-yl)benzamide], for which the pIC50 against Btk [2] was at least 8.00.
As for `COCC#CC(=O)N1CC[C@@H](n2nc(-c3ccc(C(=O)Nc4ccccn4)cc3)c3c(N)ncnc32)C1` [Compound ID 18, (R)-4-(4-amino-1-(1-(4-methoxybut-2-ynoyl)pyrrolidin-3-yl)-1H-pyrazolo[3,4-d]pyrimidin-3-yl)-N-(pyridin-2-yl)benzamide], the values for the pIC50 against LCK, against EGFR and against Btk [1] were 7.00 to 8.00, at least 8.00 and at least 8.00, respectively.
With `N#CC1(C(=O)N2CC[C@@H](n3nc(-c4ccc(C(=O)Nc5ccccn5)cc4)c4c(N)ncnc43)C2)CC1` [Compound ID 52, (R)-4-(4-amino-1-(1-(1-cyanocyclopropanecarbonyl)pyrrolidin-3-yl)-1H-pyrazolo[3,4-d]pyrimidin-3-yl)-N-(pyridin-2-yl)benzamide], the pIC50 against Btk [1] is 6.00 to 7.00; against Btk [2] it was below 8.00.
On to `C=CC(=O)N1CC[C@@H](n2nc(-c3ccc(C(=O)Nc4cc(C#N)ccn4)cc3)c3c(N)ncnc32)C1` [Compound ID 24, (R)-4-(1-(1-acryloylpyrrolidin-3-yl)-4-amino-1H-pyrazolo[3,4-d]pyrimidin-3-yl)-N-(4-cyanopyridin-2-yl)benzamide], for which, at Btk [2], the pIC50 was at least 8.00.

The values above are taken from patent US9533991B2, “Inhibitors of Bruton's tyrosine kinase” (PHARMACYCLICS LLC, priority 2014, dated 2017).
